Test results from publication PMC12040169 (PLOS Biology, 2025).

Experiment: in vitro
Conditions: human, hela cells, % viability

Structure (SMILES)	viability at 28.5 h, 10 µM [%]
COCCN(Cc1nnc(-c2cccs2)o1)C(C(=O)N1CCOCC1)c1ccccc1 (centres unmarked) [CBK295190]	104
O=c1c2c3c(sc2ncn1CC(O)COc1ccc(F)cc1)CCC3 (centres unmarked) [CBK295191]	102
COc1ccc(C(=O)C2CCN(Cc3cccc4cccnc34)CC2)cc1 [CBK295192]	85.3
Cc1nc(-c2ccccc2)ccc1C(=O)Nc1nc(CC(N)=O)cs1 [CBK295195]	96.8
CCn1c(=O)n(CCC(=O)NC(C(N)=O)c2ccccc2)c2ccccc21 (centres unmarked) [CBK295196]	89.7
CCc1ccccc1Nc1nnc(SC(C)C(=O)N2CCCC2)s1 (centres unmarked) [CBK295197]	106
COc1ccc(C(=O)NCC(=O)Nc2ccc(N3CCCCC3)cc2)cc1OC [CBK295199]	94.3
COCCn1c(SC)nc2sc(-c3ccccc3)cc2c1=O [CBK295200]	89.8
Cc1nc(SCC(N)=O)nc(C)c1CCC(=O)NCc1ccc(F)cc1 [CBK295201]	88.5
CCc1ccc(C(=O)Nc2ccc(NC(C)=O)cc2C(F)(F)F)cc1 [CBK295202]	84.1
Cc1nc2c3ccccc3nc(SCC(=O)Nc3ccccc3)n2n1 [CBK295205]	78.5
CCN(C(=O)C(C)N(C)Cc1c(C)nn(C2CCS(=O)(=O)C2)c1C)c1cccc2ccccc12 (centres unmarked) [CBK295206]	108
O=C(c1ccc2ncsc2c1)N1CCN(S(=O)(=O)c2ccc(C(F)(F)F)cc2)CC1 [CBK295285]	98.2
O=C(O)c1sccc1S(=O)(=O)Nc1ccc(Cc2nc3ccccc3s2)cc1 [CBK295286]	92.8
Cc1cccc(Oc2ccccc2NS(=O)(=O)c2ccc3c(c2)N(CC(=O)O)C(=O)CO3)c1 [CBK295287]	92.1
COc1ccc2cc(COC(=O)c3cnc(C)cn3)c(Cl)nc2c1 [CBK295288]	106
CCOc1ncccc1C(=O)OCc1cc2ccc(OC)cc2nc1Cl [CBK295289]	78.1
C=CCn1c(Cc2csc(NC(=O)c3ccc([N+](=O)[O-])cc3)n2)n[nH]c1=S [CBK295290]	96.2
C=CCn1c(Cc2csc(NC(=O)c3ccc([N+](=O)[O-])cc3Cl)n2)n[nH]c1=S [CBK295291]	76.1
C=CCn1c(Cc2csc(NC(=O)c3ccc(C)cc3)n2)n[nH]c1=S [CBK295292]	96.4
CC(=O)N1CCN(C(=O)c2nn(-c3ccc(F)cc3)c3c2CCCCC3)CC1 [CBK295293]	107

Structure (SMILES)	viability at 28.5 h, 10 µM [%]
CCNS(=O)(=O)c1ccc(NS(=O)(=O)c2cc(C(=O)O)ccc2C)cc1 [CBK295296]	82.8
CSc1ccc2cc(CSc3nnc(-c4cccs4)n3CC(=O)O)c(Cl)nc2c1 [CBK295298]	91.3
O=C(CSc1nnc(C2CC2)[nH]1)Nc1ccc(SC(F)F)cc1 [CBK295302]	101
C=CCn1c(-c2sc(NC(=O)c3cc4ccccc4s3)nc2C)n[nH]c1=S [CBK295303]	94.8
CN(CC(=O)Nc1ccc(Cl)c(C(F)(F)F)c1)C(=O)c1cc(O)nc2ccccc12 [CBK295304]	87.8
Cc1nc(NC(=O)C2CC(=O)N(c3cccc(C(C)C)c3)C2)sc1-c1n[nH]c(=S)n1C (centres unmarked) [CBK295306]	91
C=CCn1c(Cc2csc(NC(=O)c3ccc(C)c(F)c3)n2)n[nH]c1=S [CBK295307]	80.6
COc1ccc(C2CCCN2S(=O)(=O)c2ccccc2[N+](=O)[O-])cc1OC (centres unmarked) [CBK295309]	96.1
C=CCn1c(-c2sc(NC(=O)CCc3ccco3)nc2C)n[nH]c1=S [CBK295312]	89.4
CCCCOC(=O)c1ccc(NC(=O)c2cc(-c3ccco3)nc3c2c(C)nn3C)cc1 [CBK295313]	103
C=CCn1c(Cc2csc(NC(=O)c3cccc(Cl)c3)n2)n[nH]c1=S [CBK295314]	98.3
COc1ccc(-c2n[nH]c(=S)n2CC(=O)Nc2nc(-c3ccc(C)cc3C)cs2)cc1 [CBK295316]	96.9
C=CCn1c(Cc2csc(NC(=O)c3ccc(Cl)cc3)n2)n[nH]c1=S [CBK295318]	86.7
CCc1ccc(OCc2nnc(SCC(=O)NCCCC(=O)O)n2CC(C)C)cc1 [CBK295321]	101
C=CCn1c(Cc2csc(NC(=O)c3ccc([N+](=O)[O-])c(C)c3)n2)n[nH]c1=S [CBK295323]	87
C=CCn1c(Cc2csc(NC(=O)c3ccc(OC)c(OC)c3)n2)n[nH]c1=S [CBK295324]	102
CCCn1c(C)cc(-c2csc(NC(=O)CCn3c(-c4cccs4)n[nH]c3=S)n2)c1C [CBK295326]	90.8
CCc1noc(C)c1C(=O)Nc1cc(S(=O)(=O)N2CCCCC2)ccc1N(C)C [CBK295328]	85.4
CN(C)c1ccc(CNC(=O)Cn2nc(C(=O)O)c3ccccc3c2=O)cc1 [CBK295330]	105
CN(Cc1ccc(N2CCCCC2)cc1)S(=O)(=O)c1ccsc1C(=O)O [CBK295333]	85.5
O=C(Nc1cccc(C=Cc2ccccn2)c1)c1c[nH]nc1-c1ccc(F)cc1 [CBK295335]	78

Structure (SMILES)	viability at 28.5 h, 10 µM [%]
Cc1ccc2cc(COC(=O)c3ccc(N4CCOCC4)nc3)c(Cl)nc2c1 [CBK295336]	90.5
Cc1nc(NC(=O)C2Cc3ccccc3S2)sc1-c1n[nH]c(=S)n1C (centres unmarked) [CBK295337]	98
C=CCn1c(Cc2csc(NC(=O)c3ccc(OC(F)F)cc3)n2)n[nH]c1=S [CBK295338]	100
C=CCn1c(Cc2csc(NC(=O)c3cccc([N+](=O)[O-])c3)n2)n[nH]c1=S [CBK295339]	106
C=CCn1c(Cc2csc(NC(=O)c3ccc(S(C)(=O)=O)cc3)n2)n[nH]c1=S [CBK295340]	97
COc1ccc(C(NC(=O)COc2c(Cl)cc(C(=O)O)cc2Cl)C(C)C)cc1 (centres unmarked) [CBK295344]	87.3
Cc1nc(-c2ccco2)nc2sc(C(=O)N(C)CC3COc4ccccc4O3)c(C)c12 (centres unmarked) [CBK295347]	105
O=C(CC12CC3CC(CC(C3)C1)C2)NCC(=O)Nc1ccc2[nH]c(=O)[nH]c2c1 [CBK295349]	85.3
O=C(Cn1c2ccccc2c(=O)c2ccccc21)Nc1ccc(-n2cncn2)nc1 [CBK295350]	93.1
CCCCn1c(SCC(=O)c2cc(C)n(CCc3ccc(OC)cc3)c2C)n[nH]c1=O [CBK295351]	96.1
COc1ccc(-c2n[nH]c(=S)n2CC(=O)N2CCN(c3cccc(C)c3)CC2)cc1 [CBK295352]	88.6
COc1ccc2cc(Cn3nc(C(=O)O)c4ccccc4c3=O)c(Cl)nc2c1 [CBK295354]	88
COc1ccc2cc(CNC(Cc3ccccc3)c3ccccc3)c(Cl)nc2c1 (centres unmarked) [CBK295357]	93.3
Cc1nc(COc2ccc(C(=O)Nc3ccc(C(=O)O)cc3C)cc2)cs1 [CBK295360]	91.3
C=CCn1c(-c2sc(NC(=O)c3ccc(Cl)cc3F)nc2C)n[nH]c1=S [CBK295361]	94.7
Cc1nc(NC(=O)CCN2C(=O)COc3ccccc32)sc1-c1n[nH]c(=S)n1C [CBK295362]	98.5
CCn1c(=O)c(C=Cc2cccc(Br)c2)nc2cc(C(=O)O)ccc21 [CBK295364]	110
CCCn1c(SCC(=O)N2CCN(S(=O)(=O)c3ccc(C)cc3C)CC2)n[nH]c1=O [CBK295590]	104
CCCn1c(O)cc(=O)nc1SCC(=O)NCc1ccc(OC)c(OC)c1 [CBK295592]	101
O=c1oc(-c2ccco2)nn1Cc1ccc([N+](=O)[O-])cc1 [CBK295593]	94.8
CC(Sc1nc(-c2ccccc2F)n[nH]1)C(=O)N1CCNC1=O (centres unmarked) [CBK295594]	106

Structure (SMILES)	viability at 28.5 h, 10 µM [%]
CCCn1c(SC(C)C(=O)c2cc(C)n(-c3ccc(Cl)cc3)c2C)n[nH]c1=O (centres unmarked) [CBK295595]	86.2
CC(=O)Nc1cccc(NC(=O)c2ccc(CN3CCCCC3)cc2)c1 [CBK295596]	103
Cc1cc(C)c(NC(=O)CSc2n[nH]c(=O)n2C2CC2)c(C)c1 [CBK295598]	95
Cc1nc(C)c(CCC(=O)NC2CCCc3ccccc32)c(=O)[nH]1 (centres unmarked) [CBK295600]	98.7
Cc1nc(C)c(CCC(=O)NC2CCSc3c(F)cccc32)c(=O)[nH]1 (centres unmarked) [CBK295601]	95.2
O=C(CCn1c(=O)oc2ccccc21)N1CC=C(c2ccc(F)cc2)CC1 [CBK295602]	95.8
Cc1ccc(SCCNC(=O)CSc2n[nH]c(=O)n2C2CC2)cc1 [CBK295605]	120
Cc1noc2nc(-c3ccco3)cc(C(=O)NCc3nc4ccccc4[nH]3)c12 [CBK295608]	93.5
O=C(CSc1ncnc2ccccc12)N(Cc1ccccc1F)C1CC1 [CBK295610]	92.1
CC(C)[C@H](NS(=O)(=O)c1ccc(Cl)cc1)C(=O)NCc1ccc(Cn2cccn2)cc1 [CBK295611]	104
Cc1ccc(Oc2ccc(NC(=O)Cn3cnnc3C#N)cc2)cc1 [CBK295612]	106
Cc1csc(NC(=O)c2cc(S(=O)(=O)N3CCCC3)cn2C)n1 [CBK295617]	87.8
Cc1c(O)ccc2c(COC(=O)C3(c4ccccc4)CCCC3)cc(=O)oc12 [CBK295622]	98.8
Cc1noc2nc(-c3ccco3)cc(C(=O)N(C)CCOc3ccccc3)c12 [CBK295623]	90.1
CN(Cc1cn(-c2ccccc2)nc1-c1ccccc1)C(=O)CCc1n[nH]c(=S)[nH]c1=O [CBK295630]	102
O=C(OCCCc1cccnc1)c1cc(=O)[nH]c2ccccc12 [CBK295631]	99.7
O=C(NC(c1ccc(F)cc1)c1cccs1)c1ccccn1 (centres unmarked) [CBK295636]	106
Cc1cc(NC(=O)C(C)N2CCN(S(=O)(=O)c3ccc(C4CCCCC4)cc3)CC2)on1 (centres unmarked) [CBK295639]	101
O=C(COc1ccc(-c2ccccc2)cc1Cl)N1CCN(C(=O)C2CC2)CC1 [CBK295640]	96.8
Cc1cc(C(=O)CSc2nc(=O)cc(O)n2CC(C)C)c(C)n1C [CBK295649]	85.4
